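Cells were grown in 96-well plates and exposed to each compound for 48 hours at five concentrations; endpoints were interpolated linearly between bracketing concentrations, or set to the highest concentration if not reached. TGI denotes the concentration required for complete inhibition of growth.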
What was measured:
Test in all cases: NCI tumour cell line growth inhibition, 48 h
OVCAR-5 ovarian = tested on: OVCAR-5 ovarian
IGROV1 ovarian = tested on: IGROV1 ovarian
SK-MEL-2 melanoma = tested on: SK-MEL-2 melanoma
OVCAR-3 ovarian = tested on: OVCAR-3 ovarian
SK-OV-3 ovarian = tested on: SK-OV-3 ovarian
NCI-H23 lung = tested on: NCI-H23 lung
HCT-116 colon = tested on: HCT-116 colon
SF-539 CNS = tested on: SF-539 CNS
786-0 renal = tested on: 786-0 renal
SNB-75 CNS = tested on: SNB-75 CNS
K-562 leukemia = tested on: K-562 leukemia
OVCAR-4 ovarian = tested on: OVCAR-4 ovarian
NCI-H226 lung = tested on: NCI-H226 lung
CCRF-CEM leukemia = tested on: CCRF-CEM leukemia
SK-MEL-5 melanoma = tested on: SK-MEL-5 melanoma
A549 NSCLC = tested on: A549 NSCLC
RPMI-8226 leukemia = tested on: RPMI-8226 leukemia
MDA-N = tested on: MDA-N
DU-145 prostate = tested on: DU-145 prostate
MDA-MB-231 breast = tested on: MDA-MB-231 breast

Row | Compound | TGI (OVCAR-5 ovarian) [µM] | TGI (IGROV1 ovarian) [µM] | TGI (SK-MEL-2 melanoma) [µM] | TGI (OVCAR-3 ovarian) [µM] | TGI (SK-OV-3 ovarian) [µM] | TGI (NCI-H23 lung) [µM] | TGI (HCT-116 colon) [µM] | TGI (SF-539 CNS) [µM] | TGI (786-0 renal) [µM] | TGI (SNB-75 CNS) [µM] | TGI (K-562 leukemia) [µM] | TGI (OVCAR-4 ovarian) [µM] | TGI (NCI-H226 lung) [µM] | TGI (CCRF-CEM leukemia) [µM] | TGI (SK-MEL-5 melanoma) [µM] | TGI (A549 NSCLC) [µM] | TGI (RPMI-8226 leukemia) [µM] | TGI (MDA-N) [µM] | TGI (DU-145 prostate) [µM] | TGI (MDA-MB-231 breast) [µM]
1 | CC(=O)OCCOCNC(=S)N/N=C/c1cc([N+](=O)[O-])ccc1O | > 100 | > 100 | > 100 | > 100 | > 100 | > 100 | > 100 | > 100 | > 100 | > 100 | > 100 | > 100 | > 100 | > 100 | > 100 | > 100 | – | – | – | –
2 | O=C1Cc2nc(CO)c(CO)c(CO)c2CO1 | > 100 | > 100 | > 100 | > 100 | > 100 | > 100 | > 100 | > 100 | > 100 | > 100 | > 100 | – | – | > 100 | > 100 | > 100 | > 100 | – | – | –
3 | CNC(=O)C1(C#N)C(c2ccccc2)C(C#N)(C(=O)NC)C1c1ccccc1 (stereo not given) | > 100 | > 100 | > 100 | > 100 | > 100 | > 100 | > 100 | > 100 | > 100 | > 100 | > 100 | > 100 | > 100 | > 100 | > 100 | > 100 | > 100 | > 100 | – | –
4 | COc1cc2cc(C(=O)N3CC(CCl)c4ccc([N+](=O)[O-])cc43)[nH]c2c(OC)c1OC (stereo not given) | > 100 | > 100 | > 100 | > 100 | – | > 100 | > 100 | > 100 | > 100 | > 100 | > 100 | > 100 | – | > 100 | > 100 | > 100 | > 100 | – | > 100 | > 100
5 | COc1ccc(N2C(=O)C3c4[nH]c5ccccc5c4C4CC(C)(C)CC(C)(C)C4C3C2=O)cc1 (stereo not given) | – | 65.5 | – | – | 38.2 | 33.9 | 30.4 | 27.2 | 28.3 | 34.5 | > 100 | 26.2 | 29.3 | > 100 | 41.3 | 27.3 | > 100 | – | – | –
6 | C/C(N)=C/C(=O)c1[nH]c(C(=O)O)cc1C1CCN(Cc2ccccc2)C1=O (stereo not given) | > 100 | 94.1 | 77.6 | 55.6 | 71.3 | 47.9 | 63.8 | – | 85 | 88.4 | 59 | > 100 | – | – | 33.8 | > 100 | 44.7 | 69.7 | 84.3 | > 100
7 | c1cc2nnsc2s1 | > 100 | > 100 | > 100 | – | > 100 | > 100 | – | > 100 | > 100 | > 100 | > 100 | > 100 | > 100 | > 100 | > 100 | – | > 100 | – | – | –
8 | COc1cc2c(c(O)c1OC)C(=O)[C@@H]1CCC(=O)N1C2c1ccccc1 (stereo not given in full) | > 100 | > 100 | > 100 | > 100 | > 100 | > 100 | > 100 | > 100 | > 100 | > 100 | > 100 | > 100 | > 100 | > 100 | – | > 100 | > 100 | > 100 | > 100 | –
9 | CNC1c2ccccc2C(=O)c2cc3c(cc21)OCCOCCOCCOCCO3 (stereo not given) | > 100 | > 100 | – | – | > 100 | – | > 100 | > 100 | > 100 | > 100 | > 100 | > 100 | – | 46.1 | > 100 | > 100 | > 100 | > 100 | – | > 100
10 | CN(C)C=Nc1c2ccccc2nc2ccccc12 | 32.8 | 26.3 | 9.26 | 13.4 | 23.4 | 15.8 | 17.8 | 10.4 | 16.9 | 13.6 | 22.6 | 21.1 | 9.06 | 21.2 | 12.5 | 17.3 | 6.88 | – | 39.7 | 21.5
11 | Cc1ccc(OCC2OC(n3cnc4nc(Nc5ccc(Cl)c(Cl)c5)nc(Cl)c43)CC2Oc2ccc(C)cc2)cc1 (stereo not given) | > 100 | > 100 | > 100 | > 100 | > 100 | > 100 | > 100 | – | > 100 | > 100 | > 100 | > 100 | > 100 | > 100 | > 100 | > 100 | > 100 | > 100 | > 100 | > 100
12 | COc1ccccc1C(=O)NO | > 100 | > 100 | > 100 | > 100 | > 100 | > 100 | > 100 | – | > 100 | > 100 | > 100 | > 100 | > 100 | > 100 | > 100 | > 100 | > 100 | > 100 | > 100 | > 100
13 | O=C(NCCC1CN(C(=O)OCc2ccccc2)c2ccccc21)OCc1ccccc1 (stereo not given) | > 100 | > 100 | > 100 | > 100 | > 100 | > 100 | > 100 | – | > 100 | > 100 | > 100 | > 100 | – | – | > 100 | > 100 | > 100 | > 100 | > 100 | > 100
14 | COc1ccc(C2ON(c3ccccc3)CC=C2C)cc1 (stereo not given) | > 100 | > 100 | 78.3 | > 100 | > 100 | > 100 | > 100 | > 100 | > 100 | > 100 | > 100 | > 100 | > 100 | > 100 | – | > 100 | > 100 | – | – | –
15 | COc1cc(CC2c3cc(OC)c(OC)cc3CCN2C)ccc1O (stereo not given) | > 100 | – | > 100 | > 100 | – | > 100 | > 100 | > 100 | > 100 | > 100 | > 100 | > 100 | – | > 100 | > 100 | > 100 | > 100 | – | – | –
16 | CN/C=C(\C(=O)c1ccc(OC)c(OC)c1)c1ccc(OC)cc1 | – | > 100 | 31.5 | – | > 100 | > 100 | 18.1 | 14.1 | 23.9 | > 100 | 27.1 | 80.1 | 41.5 | 23.8 | 35 | > 100 | 24.4 | – | – | –
17 | CCC1(CC)C(=O)N(C(=O)c2ccccc2)N(C(=O)c2ccc(Cl)cc2)C1=O | > 75 | > 75 | > 75 | > 75 | > 75 | > 75 | > 75 | – | > 75 | > 75 | > 75 | > 75 | > 75 | 51.3 | > 75 | > 75 | > 75 | > 75 | > 75 | > 75
18 | O=[N+]([O-])c1ccc(N/N=C2/CC3=C2CCCCCCCCCC3)c([N+](=O)[O-])c1 | > 100 | > 100 | > 100 | > 100 | > 100 | > 100 | > 100 | – | > 100 | > 100 | > 100 | > 100 | > 100 | > 100 | > 100 | > 100 | > 100 | > 100 | > 100 | > 100
19 | O=c1[nH]c(=O)n(C2CC(O)C(CO)O2)cc1C(F)(C(F)(F)F)C(F)(F)F (stereo not given) | > 100 | > 100 | > 100 | > 100 | > 100 | > 100 | – | > 100 | > 100 | > 100 | > 100 | > 100 | > 100 | > 100 | > 100 | – | > 100 | – | – | –
20 | Oc1[nH]c(=S)[nH]c1/C=C1/C(c2ccccc2)=Nc2ccccc21 | 36.1 | 30.3 | 26 | 30 | – | 29 | 27.5 | 31.2 | 28.4 | 28.8 | 33.7 | 57.4 | 35.8 | – | 25.8 | – | 36.2 | 28.4 | – | 33.5
21 | CC(C)(C)C1CCC2c3c([nH]c4ccccc34)C3C(=O)N(c4ccccc4Cl)C(=O)C3C2C1 (stereo not given) | – | > 100 | 35 | 47.3 | > 100 | 62.7 | 14.3 | – | 27.7 | – | > 100 | – | – | > 100 | 28.7 | 86.5 | > 100 | 29.3 | 42.7 | 24.6
22 | CCOC(=O)C1=C(C)NC2=C(C(=O)N(c3ccccc3)C2c2ccccc2)C1c1ccccc1 (stereo not given) | 29.8 | 40.8 | 33.5 | 25.4 | 31.4 | 33.7 | 31.4 | 33.1 | 35.8 | 26.6 | > 100 | – | 37.1 | 58 | 28.6 | 44.2 | 53.4 | – | – | –
23 | CC(=O)Nc1ccc(-c2nnc(SCC(=O)Nc3cccc(Cl)c3)o2)cc1 | 40.3 | 32.5 | 70.4 | 22.1 | > 100 | 23 | 25.5 | 34.8 | 23.7 | 71.9 | > 100 | 42.3 | 48.8 | > 100 | 29.1 | 33.1 | > 100 | – | – | –
24 | O=C1C2CCCCC2C(=O)N1n1c(-c2ccccc2)n[nH]c1=O (stereo not given) | > 100 | > 100 | > 100 | > 100 | > 100 | > 100 | > 100 | > 100 | > 100 | > 100 | > 100 | > 100 | > 100 | > 100 | > 100 | > 100 | > 100 | > 100 | – | > 100
25 | O=c1oc2ccccc2c(O)c1C(c1cnc2ccccc2c1)c1c(O)c2ccccc2oc1=O | – | > 100 | > 100 | > 100 | – | > 100 | > 100 | – | > 100 | 52.7 | > 100 | > 100 | > 100 | > 100 | > 100 | – | > 100 | 69.5 | > 100 | > 100
26 | CCOC(=O)c1ccc(C(=O)n2ccnc2)[nH]1 | > 100 | > 100 | > 100 | > 100 | – | > 100 | > 100 | – | > 100 | > 100 | > 100 | > 100 | > 100 | > 100 | > 100 | > 100 | > 100 | > 100 | > 100 | > 100
27 | CC12CCC(=O)N1c1cncnc1N2 (stereo not given) | > 10 | > 10 | > 10 | > 10 | > 10 | > 10 | > 10 | > 10 | > 10 | > 10 | > 10 | > 10 | > 10 | > 10 | – | > 10 | – | > 10 | > 10 | –
